Experimental data as given in paper PMC6521598, “Identification of GLPG/ABBV-2737, a Novel Class of Corrector, Which Exerts Functional Synergy With Other CFTR Modulators” (Frontiers in Pharmacology, 2019).

What was measured:
E92K CFTR = target: T1, E92K CFTR (Homo sapiens, UniProt P13569, E92K); assay: YFP halide assay (YHA), HEK293, E92K; assay type: cell-based; settings: for rescue of E92K: YFP halide assay
T1 construct: expressed in transfected cells; host or cells: HEK293
Protocol: (§1) HEK293 cells were transfected with 10–80 ng of plasmid encoding F508del, E92K, P67L, V232D, F508del/G550E, F508del/I539T or wild type CFTR and 20 ng of plasmid encoding YFP (H148Q/I152L/F47L) using jetPEI (Polyplus transfection). Directly after transfection, cells were seeded in black 96-well plates coated with poly-D-lysine at a density of 70,000 cells per well. The next day, cells were treated with corrector(s) for 24 h. After this incubation period, cells were washed twice with DPBS with Ca^2+ and Mg^2+. Subsequently, cells were treated with 10 μM forskolin and the desired concentration of potentiator in a volume of 40 μl and incubated at room temperature for 10 min, a time point optimized in previous experiments resulting in a good window (positive control/negative control > 2) and signal to background ratio. YFP fluorescence was measured using an EnVision plate reader (PerkinElmer). […] The excitation wavelength was 485 nm and the emission wavelength 530 nm. The capacity of potentiators to increase CFTR channel function was expressed as 1-(fluorescence 7 s after NaI addition (F)/fluorescence before NaI addition (F0)). For the different mutants, data was normalized using the formula: normalized response = 100^∗(absolute response – negative control response)/(GLPG2222 response – negative response) as such, GLPG2222 response corresponds to 100. Concentration–response experiments were fitted using a 4 parameter hill function of the form Response = Bottom + (Top - Bottom)/(1 + (EC50/concentration) ˆHillSlope)) to determine EC50 values.
(§2) FIGURE 7 YHA assay using CFTR mutant overexpression in HEK293 cells. Cells were incubated for 24 h with either a dose range of GLPG2737, GLPG2222 or VX809. After washing, cells were triggered with forskolin (50 μM for F508del, E92K, V232D and F508del/I539T, 10 μM for P67L or 1 μM for F508del/G550E) and 0.5 μM potentiator and YFP fluorescence was measured. Efficacy was determined using 10 μM GLPG2222 as positive control and DMSO as negative control in the assay. (A) Table with potency and efficacy obtained for the mutants and compounds tested. (B) Dose–response curves of GLPG2737. (C) Dose–response curves of GLPG2222. (D) Dose–response curves of VX-809. For panels (B–D), E92K mutant is represented in black, F508del mutant in blue, F508del/I539T mutant in green and V232D mutant in gray, all concentrations are tested in duplicate. […] All values containing these digits are best readings, e.g. GLPG2222 P67L EC50 206 (± 98), GLPG2222 E92K EC50 503 (± 109), VX809 F508del EC50 286 (± 35), VX809 P67L % of reference 88 (± 3), GLPG2737 F508del % of reference 138 (± 9). / GLPG2737, EC50 for P67L and E92K is printed as NA; left out because no value is given. / VX809, E92K EC50 error: 17, a digit may be missing.

P67L CFTR = target: T2, P67L CFTR (Homo sapiens, UniProt P13569, P67L); assay: YFP halide assay (YHA), HEK293, P67L; assay type: cell-based; settings: for rescue of P67L: YFP halide assay
T2 construct: expressed in transfected cells; host or cells: HEK293
T2 sequence (P13569 whole entry P67L): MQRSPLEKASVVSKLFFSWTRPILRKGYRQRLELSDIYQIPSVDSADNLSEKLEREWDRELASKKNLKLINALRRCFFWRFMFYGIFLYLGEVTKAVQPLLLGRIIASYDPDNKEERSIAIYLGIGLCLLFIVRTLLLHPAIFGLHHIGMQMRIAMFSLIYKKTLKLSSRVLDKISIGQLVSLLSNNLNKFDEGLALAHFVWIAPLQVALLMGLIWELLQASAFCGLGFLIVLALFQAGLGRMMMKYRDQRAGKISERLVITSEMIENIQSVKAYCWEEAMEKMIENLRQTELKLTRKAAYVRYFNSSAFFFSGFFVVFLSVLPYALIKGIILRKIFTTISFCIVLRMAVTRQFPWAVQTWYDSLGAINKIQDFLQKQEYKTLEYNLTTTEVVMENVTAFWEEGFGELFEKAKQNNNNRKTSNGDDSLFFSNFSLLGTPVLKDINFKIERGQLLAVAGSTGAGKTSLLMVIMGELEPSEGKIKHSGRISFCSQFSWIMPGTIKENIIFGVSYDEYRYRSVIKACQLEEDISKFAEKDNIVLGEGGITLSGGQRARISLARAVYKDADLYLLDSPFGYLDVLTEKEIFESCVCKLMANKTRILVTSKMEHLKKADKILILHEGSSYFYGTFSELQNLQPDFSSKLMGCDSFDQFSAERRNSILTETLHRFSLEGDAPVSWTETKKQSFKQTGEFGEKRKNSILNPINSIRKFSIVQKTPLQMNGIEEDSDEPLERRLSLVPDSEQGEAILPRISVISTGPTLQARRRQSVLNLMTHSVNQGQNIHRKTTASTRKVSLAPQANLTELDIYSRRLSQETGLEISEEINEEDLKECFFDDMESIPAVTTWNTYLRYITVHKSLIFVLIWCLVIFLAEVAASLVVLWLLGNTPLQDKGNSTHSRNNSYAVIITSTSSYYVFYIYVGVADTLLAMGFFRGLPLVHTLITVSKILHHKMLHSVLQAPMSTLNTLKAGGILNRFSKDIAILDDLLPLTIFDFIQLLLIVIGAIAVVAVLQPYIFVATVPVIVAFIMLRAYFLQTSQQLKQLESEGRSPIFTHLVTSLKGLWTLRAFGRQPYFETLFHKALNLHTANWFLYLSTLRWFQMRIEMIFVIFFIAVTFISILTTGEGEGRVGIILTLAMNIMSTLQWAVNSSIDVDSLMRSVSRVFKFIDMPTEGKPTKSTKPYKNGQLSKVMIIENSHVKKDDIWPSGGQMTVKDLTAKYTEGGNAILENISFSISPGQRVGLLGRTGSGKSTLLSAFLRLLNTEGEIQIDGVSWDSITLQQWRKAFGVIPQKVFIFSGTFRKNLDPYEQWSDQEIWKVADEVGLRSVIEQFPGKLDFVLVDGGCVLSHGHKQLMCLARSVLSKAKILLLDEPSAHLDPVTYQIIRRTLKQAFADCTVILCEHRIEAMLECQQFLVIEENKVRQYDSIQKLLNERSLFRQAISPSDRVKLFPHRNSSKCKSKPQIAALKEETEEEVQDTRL
Protocol: as §1, §2

V232D CFTR = target: T3, V232D CFTR (Homo sapiens, UniProt P13569, V232D); assay: YFP halide assay (YHA), HEK293, V232D; assay type: cell-based; settings: 24 h; 50 μM forskolin + 0.5 μM potentiator
T3 construct: expressed in transfected cells; host or cells: HEK293
T3 sequence (P13569 whole entry V232D): as the sequence (P13569 whole entry P67L) above, with L67P, V232D counted along it
Protocol: as §1, with “For the different mutants, data was normalized using the formula: normalized response = 100^∗(absolute response – negative control response)/(GLPG2222 response – negative response) as such, GLPG2222 response corresponds to 100. Concentration–response experiments were fitted using a 4 parameter hill function of the form Response = Bottom + (Top - Bottom)/(1 + (EC50/concentration) ˆHillSlope)) to determine EC50 values.” left out
(§3) FIGURE 7 YHA assay using CFTR mutant overexpression in HEK293 cells. […] After washing, cells were triggered with forskolin (50 μM for F508del, E92K, V232D and F508del/I539T, 10 μM for P67L or 1 μM for F508del/G550E) and 0.5 μM potentiator and YFP fluorescence was measured. Efficacy was determined using 10 μM GLPG2222 as positive control and DMSO as negative control in the assay. […] All values containing these digits are best readings, e.g. GLPG2222 P67L EC50 206 (± 98), GLPG2222 E92K EC50 503 (± 109), VX809 F508del EC50 286 (± 35), VX809 P67L % of reference 88 (± 3), GLPG2737 F508del % of reference 138 (± 9). / GLPG2737, EC50 for P67L and E92K is printed as NA; left out because no value is given. / VX809, E92K EC50 error: 17, a digit may be missing.

F508del CFTR = F508del CFTR (Homo sapiens, UniProt P13569, DEL508-508); assay: Patch-clamp single-channel recording, inside-out patches of CHO cells; assay type: cell-based, hamster
F508del CFTR, sequence (P13569 with tags, fused parts or gaps DEL508-508): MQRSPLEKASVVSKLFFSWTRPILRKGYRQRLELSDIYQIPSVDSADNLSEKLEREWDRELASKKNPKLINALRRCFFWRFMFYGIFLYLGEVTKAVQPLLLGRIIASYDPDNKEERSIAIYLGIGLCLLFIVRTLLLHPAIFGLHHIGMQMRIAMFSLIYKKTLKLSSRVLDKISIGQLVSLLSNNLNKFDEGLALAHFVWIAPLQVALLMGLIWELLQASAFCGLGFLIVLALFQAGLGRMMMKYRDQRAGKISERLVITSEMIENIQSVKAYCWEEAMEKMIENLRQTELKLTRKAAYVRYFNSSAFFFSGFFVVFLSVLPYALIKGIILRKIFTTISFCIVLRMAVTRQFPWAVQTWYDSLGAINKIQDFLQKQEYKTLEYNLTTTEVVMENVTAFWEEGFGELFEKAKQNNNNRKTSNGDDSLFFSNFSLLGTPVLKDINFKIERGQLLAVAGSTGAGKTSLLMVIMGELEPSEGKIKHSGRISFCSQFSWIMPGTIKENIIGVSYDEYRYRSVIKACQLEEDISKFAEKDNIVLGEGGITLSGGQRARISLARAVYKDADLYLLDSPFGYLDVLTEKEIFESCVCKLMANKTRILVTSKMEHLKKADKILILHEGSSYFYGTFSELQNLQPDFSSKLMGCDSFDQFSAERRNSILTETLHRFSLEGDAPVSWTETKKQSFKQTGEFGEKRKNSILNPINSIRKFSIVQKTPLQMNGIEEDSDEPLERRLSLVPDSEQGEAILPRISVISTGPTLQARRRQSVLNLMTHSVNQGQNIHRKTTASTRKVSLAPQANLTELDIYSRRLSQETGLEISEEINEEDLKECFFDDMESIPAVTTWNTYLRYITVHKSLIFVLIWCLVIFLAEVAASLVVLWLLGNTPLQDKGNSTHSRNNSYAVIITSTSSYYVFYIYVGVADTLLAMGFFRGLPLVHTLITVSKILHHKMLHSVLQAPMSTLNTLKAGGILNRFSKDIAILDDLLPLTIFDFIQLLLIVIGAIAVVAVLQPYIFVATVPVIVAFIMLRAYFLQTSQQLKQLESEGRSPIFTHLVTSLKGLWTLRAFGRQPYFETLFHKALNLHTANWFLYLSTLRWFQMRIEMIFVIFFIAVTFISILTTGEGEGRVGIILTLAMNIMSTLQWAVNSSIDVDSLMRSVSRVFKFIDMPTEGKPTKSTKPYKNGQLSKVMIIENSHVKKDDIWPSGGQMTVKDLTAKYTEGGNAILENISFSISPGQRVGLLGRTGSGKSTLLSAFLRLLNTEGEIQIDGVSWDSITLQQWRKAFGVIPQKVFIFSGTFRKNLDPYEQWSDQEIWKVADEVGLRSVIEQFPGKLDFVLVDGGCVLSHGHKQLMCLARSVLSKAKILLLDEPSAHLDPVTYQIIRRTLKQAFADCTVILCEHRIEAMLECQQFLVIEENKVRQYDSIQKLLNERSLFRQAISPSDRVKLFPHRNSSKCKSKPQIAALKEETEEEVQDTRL
Protocol: A more complete description of the patch-clamp methodology can be found in a recent publication ([Lin et al., 2016]). Briefly, CHO (Chinese Hamster Ovary) cells were transiently transfected with pcDNA plasmids containing a F508del CFTR construct and pEGFP-C3. After transfection, cells were trypsinized and plated onto 35 mm tissue culture dishes dispersed with sterilized glass chips. Electrophysiological experiments were performed 3–7 days following transfection.
Patch-clamp experiments were performed at room temperature with an EPC-9 patch clamp amplifier (HEKA Instruments, Holliston, MA, United States). Recording microelectrodes were made from borosilicate capillary glass with a two-stage pipette puller (Narishige, Tokyo, Japan). The pipette tip was polished with a home-made microforge before use. The pipette solution contained (in mM) 140 NMDG (N-methyl-D-glucamine)-Cl (Fisher Biotec), 2 MgCl2 (Fisher Biotec, Perth, WA, Australia), 5 CaCl2 (Fisher Biotec), and 10 HEPES (Fisher Biotec), pH 7.4, with NMDG (see [Lin et al., 2016] for details). The pipette resistance when filled with the regular pipette solution was 3–5 MΩ. Once the tip of the pipette and the cell membrane established GΩ resistance, the electrode was quickly pulled away from the cell to form an inside-out patch, where the cytosolic side of the membrane was exposed to the perfusion solution. Cells were perfused with a bath solution having (in mM) 145 NaCl (Fisher Biotec), 5 KCl (Fisher Biotec), 2 MgCl2, 1 CaCl2, 5 glucose (Fisher Biotec), 5 HEPES, and 20 sucrose (Fisher Biotec), pH 7.4, with NaOH (Fisher Biotec). After establishing an inside-out configuration, the patch was perfused with a standard perfusion solution (i.e., intracellular solution) containing (in mM) 150 NMDG-Cl, 2 MgCl2, 10 EGTA (Fisher Biotec), and 8 Tris (Fisher Biotec), pH 7.4, with NMDG (see [Lin et al., 2016] for details) containing the catalytic subunit of protein kinase A (PKA) and 2 mM ATP. Once the phosphorylation-dependent activation of CFTR reached a plateau, 10 μM GLPG3067 was applied in the continuous presence of 2 mM ATP until a steady state was attained.
Microscopic kinetic analysis was performed with a program provided by Dr. László Csanády (Semmelweis University, Budapest, Hungary) ([Csanády, 2000]). Experiments were performed four to five times and averages and SEM were calculated. The resulting Open probability (Po) values and single-channel kinetic parameters were compared with paired t-test (Excel, Microsoft); P < 0.05 is considered statistically significant.

F508del/I539T CFTR = target: T4, F508del/I539T CFTR (Homo sapiens, UniProt P13569, DEL508-508/I539T); assay: YFP halide assay (YHA), HEK293, F508del/I539T; assay type: cell-based; settings: 24 h; 50 μM forskolin + 0.5 μM potentiator
T4 construct: expressed in transfected cells; host or cells: HEK293
T4 sequence (P13569 with tags, fused parts or gaps DEL508-508/I539T): as the sequence (P13569 with tags, fused parts or gaps DEL508-508) above, with I538T counted along it
Protocol: as §1, with “For the different mutants, data was normalized using the formula: normalized response = 100^∗(absolute response – negative control response)/(GLPG2222 response – negative response) as such, GLPG2222 response corresponds to 100. Concentration–response experiments were fitted using a 4 parameter hill function of the form Response = Bottom + (Top - Bottom)/(1 + (EC50/concentration) ˆHillSlope)) to determine EC50 values.” left out
as §3

[1] = cells treated 24 h with 0.5 μM GLPG2222 only, n = 3
[2] = acute addition of 1 μM GLPG2737 on top of 0.5 μM GLPG2222 + 10 μM GLPG3067
[3] = cells pre-treated 24 h with 0.5 μM GLPG2222 + 1 μM GLPG2737 + 10 μM GLPG3067, compounds in recording solution
[4] = same pre-treatment, after washout of GLPG2737 (GLPG2222 + GLPG3067 present)

T1 sequence (P13569 whole entry E92K): as the sequence (P13569 whole entry P67L) above, with L67P, E92K counted along it

Row | Structure (SMILES) | EC50 (E92K CFTR; 24 h, 50 μM forskolin + 0.5 μM potentiator) [µM] | rescue of E92K (E92K CFTR) | EC50 (P67L CFTR; 24 h, 10 μM forskolin + 0.5 μM potentiator) [µM] | rescue of P67L (P67L CFTR) | EC50 (V232D CFTR) [µM] | Po (F508del CFTR; [1]) | τc (F508del CFTR; [1]) [s] | τo (F508del CFTR; [1]) [s] | EC50 (F508del/I539T CFTR) [µM] | Po (F508del CFTR; [2]) | τc (F508del CFTR; [2]) [s] | τo (F508del CFTR; [2]) [s] | apparent Po (F508del CFTR; [3]) | τc (F508del CFTR; [3]) [s] | τo (F508del CFTR; [3]) [s] | Po (F508del CFTR; [4]) | τc (F508del CFTR; [4]) [s] | τo (F508del CFTR; [4]) [s]
1 | O=C(O)c1ccc([C@H]2C[C@@H](NC(=O)C3(c4ccc5c(c4)OC(F)(F)O5)CC3)c3ccc(OC(F)F)cc3O2)cc1 [GLPG2222, 4-[(2 R,4 R)-4-({[1-(2,2-Difluoro-1,3-benzodioxol-5-yl)cyclopropyl]carbonyl}amino)-7-(difluoromethoxy)-3,4-dihydro-2 H -chromen-2-yl]benzoic Acid] | 0.503 | could be rescued | 0.206 | could be rescued | 0.014 | 0.04 ± 0.01 | 6.88 ± 3.36 | 0.25 ± 0.08 | 0.004 |  |  |  |  |  |  |  |  | 
2 | COC1CCN(C2CCN(c3cc(C(=O)NS(=O)(=O)N(C)C)nc4c3c(C3CCC3)nn4-c3ccc(F)cc3)CC2)CC1 [GLPG2737] |  | absence of rescue |  | absence of rescue | 0.161 |  |  |  | 0.067 | 0.15 ± 0.01 | 6.42 ± 1.24 | 1.37 ± 0.33 | 0.21 ± 0.003 | 10.35 ± 2.22 | 2.68 ± 0.59 | 0.63 ± 0.05 | 1.89 ± 0.38 | 3.28 ± 0.09
